From patent US20070054348A1, “Methods of screening bifunctional molecules for modulated pharmacokinetic properties” (priority 2005, published 2007)
Blank lines part the entries; values can stand above or below the compound they belong to.

Legend:
[1] = target: T1, cytochrome p450 3A4 (CYP3A4) (Homo sapiens, UniProt P08684); experiment: Cytochrome P450 susceptibility assay using whole cells (FKBP-expressing CHO cells in the VIVID assay); format: in vitro ADME; conditions: FKBP-expressing Chinese hamster ovary cells (CHO) added, FIG. 4
T1 construct: purchased Invitrogen
T1 sequence (P08684 whole entry): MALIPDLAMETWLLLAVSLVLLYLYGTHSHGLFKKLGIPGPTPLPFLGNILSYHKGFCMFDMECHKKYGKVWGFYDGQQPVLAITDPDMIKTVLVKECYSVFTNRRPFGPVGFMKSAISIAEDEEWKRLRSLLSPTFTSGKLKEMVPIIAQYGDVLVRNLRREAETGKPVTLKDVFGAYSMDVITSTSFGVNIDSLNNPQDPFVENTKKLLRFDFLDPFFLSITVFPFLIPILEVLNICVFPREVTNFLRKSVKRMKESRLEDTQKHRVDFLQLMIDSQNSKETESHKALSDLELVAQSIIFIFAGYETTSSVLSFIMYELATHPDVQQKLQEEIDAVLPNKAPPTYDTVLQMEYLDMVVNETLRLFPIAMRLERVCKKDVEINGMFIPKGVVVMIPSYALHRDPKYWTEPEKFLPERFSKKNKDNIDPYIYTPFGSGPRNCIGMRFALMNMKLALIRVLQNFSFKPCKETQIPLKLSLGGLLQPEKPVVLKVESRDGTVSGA
Protocol: In addition to using rhFKBP12 or other recombinant proteins, whole cells were also tested using the cytochrome P450 assay platform. […] Unconjugated curcumin (triangle) was used as a negative control.

[2] = test system: COS-1 cells; experiment: Fluorescence microscopy of cellular distribution in cultured COS-1 cells; format: cell-based; conditions: FIG. 3
Protocol: Cellular and tissue distribution of a bifunctional molecule consisting of a FKBP-binding group was also assessed. Such re-distribution is due to changes in the physicochemical characteristics of the new molecule and also is driven by specific, high-affinity interactions with FKBP. For example, the distribution of TZDM and TZDM-SLF were studied in cultured COS-1 cells (see FIG. 3). The intrinsic fluorescence of TZDM was used was a convenient handle for following drug distribution. […] Thus, sequestering FKBP-binding drugs both reduces accessibility to P450 enzymes and also alters the distribution of the bifunctional compounds.

[3] = target: CYP3A4 (Homo sapiens, UniProt P08684)
CYP3A4, sequence (P08684 whole entry): as above
Protocol: Both the curcumin-FK506 and TZDM-SLF bifunctional compounds include a ligand to the pertidyl-prolyl isomerase FKBP. Therefore, FKBP12 was used in the assay as the PMP. A control was also performed with FK506 in the presence and absence of FKBP12.
The coding sequence of human FKBP12 was subcloned into a pGEX2t vector. Bacteria transformed with this vector produce a fusion protein between FKBP12 and glutathione S-transferase (GST). FKBP12 is purified by standard methods and the GST tag enzymatically removed. Pure FKBP was flash-frozen, and stored at −80° C. at 10-100 micromolar in HEPES or phosphate buffer pH 7.0.
The CYP3A4 compound and the green substrate VIVID® DBOMF (Invitrogen) were used in the assay with the recombinant human FKBP12 (rhFKBP12) and one of the bifunctional compounds. […] Increasing concentrations of the bifunctional compound, curcumin-FK506, were added to this system, either in the presence (open symbols) or absence (closed symbols) of rhFKBP12 at one micromolar.
However, it has never been tested in an in vitro screen. Therefore, rhFKBP12 and FK506 were added to the VIVID assay. The open symbols are FK506+FKBP and the filled symbols are FK506 alone.

[4] = stated as known; cited from earlier work

protection from P450 metabolism by addition of FKBP-expressing cells [1]: less protected
Structure (SMILES): COc1cc(/C=C/C(=O)CC(=O)/C=C/c2ccc(O)c(OC)c2)ccc1O [curcumin]

cellular distribution by intrinsic fluorescence [2]: resides in membranes
Structure (SMILES): CN(C)c1ccc(-c2nc3ccc(I)cc3s2)cc1 [TZDM]

fluorescence of the reaction in the presence of rhFKBP12 compared to the reaction lacking rhFKBP12 [3]: higher
Structure (SMILES): COc1cc(/C=C/C(=O)C(C(=O)/C=C/c2ccc(O)c(OC)c2)c2ccc(NC(=O)OCC[C@@H]3/C=C(\C)C[C@H](C)C[C@H](OC)[C@H]4O[C@@](O)(C(=O)C(=O)N5CCCC[C@H]5C(=O)OC(/C(C)=C/[C@@H]5CC[C@@H](O)[C@H](OC)C5)[C@H](C)C(O)CC3=O)[C@H](C)C[C@@H]4OC)cc2)ccc1O (stereo partly drawn) [curcumin-FK506]
protection from P450 metabolism by addition of FKBP-expressing cells [1]: protected by addition of the FKBP-expressing cells

Structure (SMILES): C=CC[C@@H]1/C=C(\C)C[C@H](C)C[C@H](OC)[C@H]2O[C@@](O)(C(=O)C(=O)N3CCCC[C@H]3C(=O)O[C@H](/C(C)=C/[C@@H]3CC[C@@H](O)[C@H](OC)C3)[C@H](C)[C@@H](O)CC1=O)[C@H](C)C[C@@H]2OC [FK506]
protection from metabolism by CYP on binding the protein partner FKBP ([3]; human): protected from P450 metabolism by the presence of the protein partner
protection from degradation in whole animals [4]: known to be protected from degradation in whole animals
